The NIST ThermoML archive (doi:10.1016/j.jct.2006.10.016)
Numbers after ± are expanded uncertainties.

Assay: xn = mol fraction of the nth substance listed
Details: 101 kPa, Liquid

Compound `C[S+](C)[O-]` [dimethyl sulfoxide] + CO has a mass density (303.15 K, x1 = 0.0998) of 837.8 ± 2.1 kg/m3, a viscosity (303.15 K, x1 = 0.0998) of 0.5976 ± 0.031 mPa·s and a mass density (303.15 K, x1 = 0.2004) of 886 ± 2.3 kg/m3. The viscosity (303.15 K, x1 = 0.2004) was 0.678 ± 0.034 mPa·s, the mass density (303.15 K, x1 = 0.3007) was 925 ± 2.4 kg/m3 and the viscosity (303.15 K, x1 = 0.3007) was 0.7684 ± 0.038 mPa·s. For the same compound, the mass density (303.15 K, x1 = 0.3998) was 959.3 ± 2.5 kg/m3, the viscosity (303.15 K, x1 = 0.3998) was 0.8719 ± 0.042 mPa·s and the mass density (303.15 K, x1 = 0.4996) was 988.4 ± 2.6 kg/m3. It also gave a viscosity (303.15 K, x1 = 0.4996) of 0.9887 ± 0.047 mPa·s, a mass density (303.15 K, x1 = 0.6008) of 1013.9 ± 2.7 kg/m3 and a viscosity (303.15 K, x1 = 0.6008) of 1.123 ± 0.053 mPa·s. The mass density (303.15 K, x1 = 0.699) was 1035.3 ± 2.8 kg/m3, the viscosity (303.15 K, x1 = 0.699) was 1.272 ± 0.059 mPa·s and the mass density (303.15 K, x1 = 0.8011) was 1055.5 ± 2.8 kg/m3. For the same compound, the viscosity (303.15 K, x1 = 0.8011) was 1.442 ± 0.066 mPa·s, the mass density (303.15 K, x1 = 0.8997) was 1073.7 ± 2.9 kg/m3 and the viscosity (303.15 K, x1 = 0.8997) was 1.629 ± 0.074 mPa·s. It also gave a mass density (303.15 K, x1 = 1) of 1090.7 ± 2.9 kg/m3, a viscosity (303.15 K, x1 = 1) of 1.832 ± 0.082 mPa·s and a mass density (308.15 K, x1 = 0.0998) of 834.7 ± 2.2 kg/m3. For the same compound, the viscosity (308.15 K, x1 = 0.0998) was 0.5587 ± 0.029 mPa·s, the mass density (308.15 K, x1 = 0.2004) was 882.3 ± 2.4 kg/m3 and the viscosity (308.15 K, x1 = 0.2004) was 0.6322 ± 0.032 mPa·s. It also gave a mass density (308.15 K, x1 = 0.3007) of 921 ± 2.5 kg/m3, a viscosity (308.15 K, x1 = 0.3007) of 0.7147 ± 0.036 mPa·s and a mass density (308.15 K, x1 = 0.3998) of 955 ± 2.6 kg/m3. The viscosity (308.15 K, x1 = 0.3998) was 0.8091 ± 0.04 mPa·s, the mass density (308.15 K, x1 = 0.4996) was 983.6 ± 2.7 kg/m3 and the viscosity (308.15 K, x1 = 0.4996) was 0.9164 ± 0.044 mPa·s. For the same compound, the mass density (308.15 K, x1 = 0.6008) was 1009 ± 2.8 kg/m3, the viscosity (308.15 K, x1 = 0.6008) was 1.037 ± 0.049 mPa·s and the mass density (308.15 K, x1 = 0.699) was 1030.1 ± 2.9 kg/m3. For the same compound, the viscosity (308.15 K, x1 = 0.699) was 1.172 ± 0.055 mPa·s, the mass density (308.15 K, x1 = 0.8011) was 1050.3 ± 2.9 kg/m3 and the viscosity (308.15 K, x1 = 0.8011) was 1.326 ± 0.061 mPa·s. For the same compound, the mass density (308.15 K, x1 = 0.8997) was 1068.3 ± 3 kg/m3, the viscosity (308.15 K, x1 = 0.8997) was 1.492 ± 0.068 mPa·s and the mass density (308.15 K, x1 = 1) was 1084.7 ± 3 kg/m3. For the same compound, the viscosity (308.15 K, x1 = 1) was 1.67 ± 0.076 mPa·s, the mass density (313.15 K, x1 = 0.0998) was 829.9 ± 2.3 kg/m3 and the viscosity (313.15 K, x1 = 0.0998) was 0.5228 ± 0.028 mPa·s. For the same compound, the mass density (313.15 K, x1 = 0.2004) was 877.3 ± 2.5 kg/m3, the viscosity (313.15 K, x1 = 0.2004) was 0.591 ± 0.031 mPa·s and the mass density (313.15 K, x1 = 0.3007) was 916.3 ± 2.6 kg/m3. The viscosity (313.15 K, x1 = 0.3007) was 0.6694 ± 0.034 mPa·s, the mass density (313.15 K, x1 = 0.3998) was 950.7 ± 2.7 kg/m3 and the viscosity (313.15 K, x1 = 0.3998) was 0.7576 ± 0.038 mPa·s. The mass density (313.15 K, x1 = 0.4996) was 979.6 ± 2.8 kg/m3, the viscosity (313.15 K, x1 = 0.4996) was 0.8549 ± 0.042 mPa·s and the mass density (313.15 K, x1 = 0.6008) was 1005.6 ± 2.9 kg/m3. The viscosity (313.15 K, x1 = 0.6008) was 0.9676 ± 0.046 mPa·s, the mass density (313.15 K, x1 = 0.699) was 1026.9 ± 3 kg/m3 and the viscosity (313.15 K, x1 = 0.699) was 1.09 ± 0.051 mPa·s. The mass density (313.15 K, x1 = 0.8011) was 1047.7 ± 3 kg/m3, the viscosity (313.15 K, x1 = 0.8011) was 1.226 ± 0.057 mPa·s and the mass density (313.15 K, x1 = 0.8997) was 1065.8 ± 3.1 kg/m3. It also gave a viscosity (313.15 K, x1 = 0.8997) of 1.379 ± 0.064 mPa·s, a mass density (313.15 K, x1 = 1) of 1082.3 ± 3.2 kg/m3 and a viscosity (313.15 K, x1 = 1) of 1.537 ± 0.07 mPa·s. It also gave a mass density (318.15 K, x1 = 0.0998) of 825.2 ± 2.4 kg/m3, a viscosity (318.15 K, x1 = 0.0998) of 0.4918 ± 0.027 mPa·s and a mass density (318.15 K, x1 = 0.2004) of 872.2 ± 2.6 kg/m3. The viscosity (318.15 K, x1 = 0.2004) was 0.5532 ± 0.029 mPa·s, the mass density (318.15 K, x1 = 0.3007) was 910.8 ± 2.7 kg/m3 and the viscosity (318.15 K, x1 = 0.3007) was 0.6281 ± 0.032 mPa·s. For the same compound, the mass density (318.15 K, x1 = 0.3998) was 944.7 ± 2.8 kg/m3, the viscosity (318.15 K, x1 = 0.3998) was 0.7073 ± 0.036 mPa·s and the mass density (318.15 K, x1 = 0.4996) was 973.3 ± 2.9 kg/m3. It also gave a viscosity (318.15 K, x1 = 0.4996) of 0.7972 ± 0.039 mPa·s, a mass density (318.15 K, x1 = 0.6008) of 999.4 ± 3 kg/m3 and a viscosity (318.15 K, x1 = 0.6008) of 0.9008 ± 0.044 mPa·s. It also gave a mass density (318.15 K, x1 = 0.699) of 1020.9 ± 3.1 kg/m3, a viscosity (318.15 K, x1 = 0.699) of 1.012 ± 0.048 mPa·s and a mass density (318.15 K, x1 = 0.8011) of 1040.9 ± 3.1 kg/m3. For the same compound, the viscosity (318.15 K, x1 = 0.8011) was 1.131 ± 0.053 mPa·s, the mass density (318.15 K, x1 = 0.8997) was 1059 ± 3.2 kg/m3 and the viscosity (318.15 K, x1 = 0.8997) was 1.269 ± 0.059 mPa·s. The mass density (318.15 K, x1 = 1) was 1075.1 ± 3.2 kg/m3, the viscosity (318.15 K, x1 = 1) was 1.408 ± 0.065 mPa·s and the mass density (323.15 K, x1 = 0.0998) was 820.4 ± 2.6 kg/m3. For the same compound, the viscosity (323.15 K, x1 = 0.0998) was 0.4582 ± 0.025 mPa·s, the mass density (323.15 K, x1 = 0.2004) was 867.1 ± 2.7 kg/m3 and the viscosity (323.15 K, x1 = 0.2004) was 0.5163 ± 0.028 mPa·s. It also gave a mass density (323.15 K, x1 = 0.3007) of 905.7 ± 2.8 kg/m3, a viscosity (323.15 K, x1 = 0.3007) of 0.5857 ± 0.03 mPa·s and a mass density (323.15 K, x1 = 0.3998) of 939.6 ± 2.9 kg/m3. It also gave a viscosity (323.15 K, x1 = 0.3998) of 0.6605 ± 0.034 mPa·s, a mass density (323.15 K, x1 = 0.4996) of 968.4 ± 3 kg/m3 and a viscosity (323.15 K, x1 = 0.4996) of 0.7426 ± 0.037 mPa·s. The mass density (323.15 K, x1 = 0.6008) was 994.4 ± 3.1 kg/m3, the viscosity (323.15 K, x1 = 0.6008) was 0.8357 ± 0.041 mPa·s and the mass density (323.15 K, x1 = 0.699) was 1016 ± 3.2 kg/m3. The viscosity (323.15 K, x1 = 0.699) was 0.9359 ± 0.045 mPa·s, the mass density (323.15 K, x1 = 0.8011) was 1036.3 ± 3.2 kg/m3 and the viscosity (323.15 K, x1 = 0.8011) was 1.045 ± 0.05 mPa·s. It also gave a mass density (323.15 K, x1 = 0.8997) of 1054 ± 3.3 kg/m3, a viscosity (323.15 K, x1 = 0.8997) of 1.167 ± 0.055 mPa·s and a mass density (323.15 K, x1 = 1) of 1070.1 ± 3.4 kg/m3. The viscosity (323.15 K, x1 = 1) was 1.289 ± 0.06 mPa·s.
